Format in all cases: functional, cell-based
One assay deals with MCF7. In words: Cytotoxicity against human MCF7 cells after 72 hrs by MTT assay. As to conditions: MCF7, 72 h. A general note: Formazan colour is commonly taken as a measure of viable cells.
Assay [1] can be described thus: Cytotoxicity against human SMMC-7541 cells after 72 hrs by MTT assay.
Assay [2] can be described thus: Cytotoxicity against human A-5408 cells after 72 hrs by MTT assay.
A further assay relates to SGC-7901. As to the kind of experiment: Cytotoxicity against human SGC7901 cells after 72 hrs by MTT assay. As to conditions: SGC-7901, 72 h.
The subject of the next assay is HeLa. In words: Cytotoxicity against human HeLa cells after 72 hrs by MTT assay.

SMILES strings stand for the structures.

As a reminder, the IC50 is the concentration that gives 50% inhibition. Read a low IC50 as inhibition by little substance.

`CCCCCCCCCCCC[C@@H](O)[C@H]1CC[C@H]([C@H](O)CCCCCC(O)CCCCCCC2=C[C@H](C)OC2=O)O1` (some centres undefined): the 50% inhibitory concentration (IC50) came out at 37 nM in the assay on MCF7; 8.3 nM in assay [1]; 320 nM in assay [2]; 230 nM in the assay with SGC-7901; 1000 nM in the assay with HeLa.
As to `CCCCCC[C@@H](O)CCC[C@H](O)[C@@H]1CC[C@@H]([C@H](O)CC[C@@H](O)[C@@H]2CC[C@H](CCCCCCCCCC3=C[C@@H](C)OC3=O)O2)O1`, the half-inhibitory concentration (IC50) amounted to 3.3 nM with MCF7; 60 nM in assay [1]; 16 nM in assay [2]; 93 nM in the assay on SGC-7901; 1.3 nM in the assay on HeLa.
The matching figures for `CCCCCCCCCCC(O)C1CCC(C2CCC(C(O)CCCCCCCC[C@H](O)CC3=C[C@@H](C)OC3=O)O2)O1` (some centres undefined) [ASIMICIN]: 13 nM, 11 nM, 3.6 nM, 4.3 nM and 27 nM.
Consider `CCCCCCCCCC[C@@H](O)[C@H]1CC[C@H]([C@H]2CC[C@H]([C@H](O)CCCCCCCCCCCCC3=C[C@@H](C)OC3=O)O2)O1` [DEACETYLUVARICIN], for which the concentration for half-maximal inhibition (IC50) in the assay with MCF7 worked out at 40 nM; in assay [1], 140 nM; in assay [2], 400 nM; with SGC-7901, 43 nM; in the assay with HeLa, 160 nM.
As to `COc1cccc2c1C(=O)c1c(O)c3c(c(O)c1C2=O)C[C@@](O)(C(=O)CO)C[C@@H]3O[C@H]1C[C@H](N)[C@H](O)[C@H](C)O1` [DOXORUBICIN], the concentration for half-maximal inhibition (IC50) in assay [1] came to 3.7 nM; in assay [2], 26 nM; in the assay with SGC-7901, 13 nM; in the assay with HeLa it was 16 nM.
Take `CCCCCCCCCC[C@H](O)[C@H]1CC[C@H]([C@H]2CC[C@H]([C@H](O)CCCCCCCCCCCCC3=C[C@@H](C)OC3=O)O2)O1` [ISODESACETYLUVARICIN]: the 50% inhibitory concentration (IC50) in the assay on MCF7 amounted to 21 nM; in assay [1], 16 nM; in assay [2] it was 160 nM; with SGC-7901, 84 nM; with HeLa, 13 nM.
Regarding `CCCCCC[C@H](O)CCC[C@H](O)[C@H]1CC[C@H]([C@H]2CC[C@H]([C@H](O)CCCCCCCCCCCCC3=C[C@H](C)OC3=O)O2)O1` [SQUAMOCIN], the IC50 came out at 0.5 nM with MCF7; 0.09 nM in assay [1]; 0.87 nM in assay [2]; 0.73 nM in the assay on SGC-7901; 9.7 nM with HeLa.
For the compound `CCCCCC[C@@H](O)CCC[C@@H](O)[C@H]1CC[C@H]([C@H]2CC[C@H]([C@H](O)CCCCCCCCCCCCC3=C[C@@H](C)OC3=O)O2)O1` [Squamocin-D], the IC50 with MCF7 is 2.8 nM; in assay [1], 12 nM; in assay [2] it was 1.8 nM; in the assay on SGC-7901, 1.6 nM; with HeLa, 24 nM.
Regarding `CCCCCC[C@@H](O)CCC[C@H](O)[C@@H]1CC[C@@H]([C@H](O)CC[C@@H](O)[C@@H]2CC[C@@H](CCCCCCCCCC3=C[C@@H](C)OC3=O)O2)O1` [Squamostatin-A], the IC50 with MCF7 was 970 nM; in assay [1] it was 50 nM; in assay [2], 2.6 nM; in the assay with SGC-7901, 97 nM; in the assay on HeLa, 33 nM.
As to `CCCCCC[C@@H](O)CCC[C@@H](O)[C@@H]1CC[C@@H]([C@H](O)CC[C@@H](O)[C@@H]2CC[C@@H](CCCCCCCCCC3=C[C@@H](C)OC3=O)O2)O1` [Squamostatin-B], the concentration for half-maximal inhibition (IC50) amounted to 730 nM in the assay with MCF7; 170 nM in assay [1]; 43 nM in assay [2]; 170 nM in the assay with SGC-7901; 380 nM in the assay with HeLa.
Turning to `CCCCCCCCCC[C@H](O)[C@@H]1CC[C@@H]([C@H](O)CC[C@@H](O)[C@@H]2CC[C@@H](CCCCCCCCCC3=C[C@@H](C)OC3=O)O2)O1` [Squamostatin-D], the 50% inhibitory concentration (IC50) with MCF7 came to 45 nM; in assay [1] it was 54 nM; in assay [2] it was 1.4 nM; in the assay on SGC-7901, 180 nM; with HeLa, 38 nM.
As for `CCCCCCCCCC[C@@H](O)[C@@H]1CC[C@@H]([C@H](O)CC[C@@H](O)[C@@H]2CC[C@@H](CCCCCCCCCC3=C[C@@H](C)OC3=O)O2)O1` [Squamostatin-E], the IC50 with MCF7 was found to be 900 nM; in assay [1] it was 180 nM; in assay [2], 130 nM; in the assay with SGC-7901 it was 210 nM; in the assay on HeLa, 270 nM.

These data come from ChEMBL document CHEMBL1153975, “Structure-activity relationships of diverse annonaceous acetogenins against human tumor cells” (Bioorg Med Chem Lett, 2009).
